Measured values reported in PubChem BioAssay (NCI).
Several values for one entry are separate records, joined by “and”; a condition that tells them apart may be missing. Identical values can stand only once.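 Growth conditions: 96-well plates. Treatment: test compound, 48 hours, 5 concentrations. Analysis: linear interpolation between bracketing concentrations; unreached endpoints set to highest concentration. The concentration for 50% growth inhibition is given as GI50. TGI is the concentration that stops growth completely.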

How the values were obtained:
Assay in all cases: inhibition of tumour cell growth, NCI panel, 48 h
[1] = test system: A498 renal
[2] = test system: A549 NSCLC
[3] = test system: EKVX NSCLC
[4] = test system: HOP-92 NSCLC
[5] = test system: HT29 colon
[6] = test system: NCI-H226 lung
[7] = test system: NCI-H522 lung
[8] = test system: RPMI-8226 leukemia
[9] = test system: SK-MEL-5 melanoma
[10] = test system: SW-620 colon

SMILES	TGI [1]	TGI [2]	TGI [3]	TGI [4]	TGI [5]	TGI [6]	TGI [7]	TGI [8]	TGI [9]	TGI [10]	GI50 [1]	GI50 [2]	GI50 [3]	GI50 [4]	GI50 [5]	GI50 [6]	GI50 [7]	GI50 [8]	GI50 [9]	GI50 [10]
N#CC(C#N)=C1SCC(=O)CS1	> 100 µM	> 100 µM	> 100 µM	> 100 µM	> 100 µM	> 100 µM	> 100 µM	> 100 µM	> 100 µM	> 100 µM										
C/C(=N\O)C(CN1CCCCC1)C(c1ccccc1)c1c(O)c2ccccc2oc1=O (stereo unspecified)	> 100 µM	> 100 µM	> 100 µM	> 100 µM	> 100 µM	> 100 µM	> 100 µM	> 100 µM	> 100 µM	> 100 µM										
COc1cc([C@@H]2OC(=O)C3C2C(=O)O[C@H]3c2cc(OC)c(OC)c(OC)c2)cc(OC)c1OC (stereo partly specified)	> 100 µM	> 100 µM	> 100 µM	> 100 µM	> 100 µM	> 100 µM	> 100 µM	> 100 µM	> 100 µM	> 100 µM										
COc1cc(/C=C/C(=O)c2c(C)n([O-])c3ccc(Cl)cc3[n+]2=O)cc(OC)c1OC	> 100 µM	> 100 µM	> 100 µM	3.53 µM	> 100 µM	> 100 µM	> 100 µM	> 100 µM	> 100 µM	> 100 µM	23.5 µM	59.8 µM	25.2 µM	0.0718 µM	> 100 µM	65.2 µM	> 100 µM	> 100 µM	68 µM	> 100 µM
Cc1cc(=O)oc2cc(OCc3nc4ccccc4c(=O)[nH]3)ccc12	> 100 µM	> 100 µM	> 100 µM	> 100 µM	> 100 µM	> 100 µM	> 100 µM	> 100 µM	> 100 µM	> 100 µM										
O=C(N/N=C\c1ccc(N(CCCl)CCCl)cc1Cl)c1cccnc1	0.179 µM	73.8 µM	> 83.6 µM	69.1 µM	> 88.4 µM	0.604 µM	86 µM	41.4 µM	34.8 µM	> 100 µM	0.0664 µM	7.57 µM	22.6 µM	15.1 µM	20.2 µM	0.127 µM	21.4 µM	12.2 µM	13.3 µM	19.2 µM
OC(CNc1ccnc2cc(Cl)ccc12)CNC1CCCCC1 (stereo unspecified)	8.16 µM	21.7 µM	27 µM	7.12 µM	12.2 µM	34.9 µM	6.55 µM	36.4 µM	3.34 µM	18.3 µM	1.52 µM	8.12 µM	6.15 µM	1.42 µM	3.26 µM	12.9 µM	2.72 µM	10.1 µM	1.77 µM	4.79 µM
COc1ccccc1/C=N/N=C(\N)NO	> 100 µM	81.1 µM	> 100 µM	65.6 µM	> 100 µM	90.7 µM	66.9 µM	> 100 µM	25.6 µM	> 100 µM										
O=C(/C=C/c1ccc(C(F)(F)F)cc1)c1ccc(Nc2nc(NCCO)nc(N3CCOCC3)n2)cc1	12 µM	> 100 µM	8.01 µM	9.2 µM	4.51 µM	5.89 µM	5.04 µM	5.71 µM	10.2 µM	4.05 µM	1.4 µM	2.74 µM	2.44 µM	2.48 µM	2 µM	2.32 µM	1.85 µM	2.07 µM	3.16 µM	1.92 µM
COC(=O)[C@@H](C)C[C@H](Cc1ccccc1)NC(=O)c1csc([C@@H](C[C@H](C(C)C)N(C)C(=O)C2(NC(=O)[C@H]3CCCCN3C)CC2)OC(C)=O)n1		> 33.3 µM	> 33.3 µM	5.29 µM	7.65 µM	> 33.3 µM	0.00491 µM	17 µM		> 33.3 µM	0.00858 µM and < 0.00333 µM			0.00434 µM and 0.00333 µM	0.00351 µM and 0.00333 µM	0.00333 µM	0.000537 µM	0.000613 µM and 0.00333 µM	0.00374 µM and 0.00333 µM	0.00317 µM and 0.00333 µM
CN(C)CCNC(=O)c1cc2c3ccccc3[nH]c2c2ncccc12	21.4 µM	36.9 µM	38.2 µM	40.6 µM	34.1 µM	39.6 µM	24.5 µM	22.7 µM	20.1 µM	24.9 µM	7.82 µM	6.46 µM	7.81 µM	8.01 µM	5.27 µM	9.8 µM	7.08 µM	6.01 µM	6.05 µM	4.24 µM
C=C1C(=O)O[C@H]2[C@H]1CC/C(CNS(=O)(=O)c1cccc3ccccc13)=C\CC[C@@]1(C)O[C@@H]21	17.2 µM	32.4 µM	10.3 µM	2.8 µM	3.86 µM	33 µM	2.88 µM	4.43 µM	3.98 µM	2.26 µM	4.85 µM	11.5 µM	2.53 µM	1.11 µM	1.85 µM	13.2 µM	1.28 µM	1.58 µM	1.95 µM	0.713 µM
C/C(=C\CC[C@]1(C)OC(C)(C)OC1CC/C(C)=C/CO[Si](c1ccccc1)(c1ccccc1)C(C)(C)C)CC/C=C/CO[Si](C)(C)C(C)(C)C (stereo partly specified)	> 100 µM	> 100 µM	> 100 µM	> 100 µM	> 100 µM	> 100 µM	> 100 µM	> 100 µM	> 100 µM	> 100 µM										
Cc1ccc(S(=O)(=O)Nc2nc3ccccc3nc2Nc2ccc3nsnc3c2)cc1	> 100 µM	> 100 µM	> 100 µM	8.23 µM and 3.73 µM	> 100 µM	> 100 µM	31.1 µM and 4.47 µM	21.2 µM and > 100 µM	11.6 µM and 7.46 µM	> 100 µM	4.85 µM and 2.86 µM	3.68 µM and 3.5 µM	4.03 µM and 3.6 µM	1.89 µM and 0.294 µM	6.78 µM and 3.1 µM	5.38 µM and 7.55 µM	3.59 µM and 1.5 µM	0.85 µM and 2.64 µM	2.65 µM and 1.88 µM	7.95 µM and 5.22 µM
COc1ccc2c(c1)OC(N)=C(C#N)C2c1ccc(F)cc1 (stereo unspecified)	63.4 µM	> 100 µM	> 100 µM	75.5 µM	13.5 µM	> 100 µM	27.1 µM	19.9 µM	18.5 µM	> 100 µM	2.81 µM	4.94 µM	5.09 µM	8.52 µM	0.625 µM	20.7 µM	0.604 µM	2.43 µM	2.49 µM	0.533 µM
OCCNCCNc1c2ccccc2nc2oc3ccccc3c12	21.9 µM	35.7 µM	46.1 µM	25.7 µM	21.5 µM	62 µM	23.7 µM	21.6 µM	21.1 µM	24.4 µM	8.27 µM	10.3 µM	13 µM	6.15 µM	4 µM	20.5 µM	7.73 µM	4.76 µM	8.97 µM	5.23 µM
Oc1ccc(N=Nc2ccc(N=Nc3ccccc3)cc2)cc1	21.7 µM	12 µM	12.5 µM	28.1 µM	9.68 µM	48.2 µM	3.94 µM	16 µM	5.64 µM	13.9 µM	9.23 µM	2.14 µM	2.49 µM	6.97 µM	2.86 µM	18.3 µM	0.832 µM	2.15 µM	2.1 µM	1.51 µM
CCCN(CCC)C(=O)[C@H](CC)[C@@H]1CC[C@@H](C)[C@@H]([C@H](C)[C@@H](O)[C@@H](C)C(=O)[C@H](CC)C2O[C@]3(C=C[C@@H](O)[C@]4(CC[C@@](C)([C@H]5CC[C@](O)(CC)[C@H](C)O5)O4)O3)[C@H](C)C[C@@H]2C)O1 (stereo partly specified)	5.85 µM	26.9 µM	11.7 µM	4.24 µM	12.7 µM	5.3 µM	4.56 µM	6.06 µM	3.16 µM	10.6 µM	2.13 µM	3.18 µM	2.59 µM	1.29 µM	3.1 µM	1.93 µM	1.82 µM	1.77 µM	1.73 µM	3.23 µM
